Source: patent US7964221B2, “Composition and methods of use of an immunomodulator” (priority 2006, dated 2011)

Assays:
[1] = 32-week three-arm HIV trial: body weight; format: in vivo, human
Source text: (§1) All participants were antiretroviral drug naive.
(§2) Laboratory abnormalities were graded.

[2] = system: CD4 cells; assay: 32-week three-arm trial in HIV-infected individuals: CD4 cell counts; format: in vivo, human; settings: for Change in CD4 cell counts from baseline: OT analysis
Source text: as §1, §2

Substance: zidovudine (AZT), lamividine (3TC), and efavirenz (EFV) [AZT/3TC/EFV]
- Body weight After ([1]; after therapy): 65.6
- Mean values for baseline body weight ([1]; baseline, mean ± SD): 64.2 ± 8.9 kg
- Body weight Before ([1]; before therapy): 64.2
- Mean weight values at the end of study ([1]; end of study): 65.6 ± 7.3 kg
- Average weight gain ([1]; week 32): 1.4 kg
- Change in CD4 cell counts from baseline ([2]; 12 weeks of treatment): +122 cells/mm^3
- Change in CD4 cell counts from baseline ([2]; 20 weeks): +108 cells/mm^3
- Change in CD4 cell counts from baseline ([2]; 32 weeks): +102 cells/mm^3
- CD4 counts After ([2]; after therapy): 463
- CD4 counts Before ([2]; before therapy (baseline)): 361
